# According to ChEMBL document CHEMBL5528009, “Benzothiozinone derivatives with anti-tubercular Activity-Further side chain investigation” (Eur J Med Chem, 2024):
# The source made the active and inactive calls. The calls are words filed in the database; no cut-off is given here.
# Key:
# [1] = system: Mycobacterium tuberculosis; assay: Antitubercular activity against Mycobacterium tuberculosis H37Rv (ATCC 25618) incubated for […] by MABA assay; assay type: functional
# [2] = molecular target: T1, Decaprenylphosphoryl-beta-D-ribose oxidase (Mycobacterium tuberculosis (strain ATCC 25618 / H37Rv)) (UniProt P9WJF1); assay: Time-dependent covalent inhibition of recombinant Mycobacterium tuberculosis DprE1 expressed in Escherichia coli by Amplex Red/peroxidase coupled assay
# T1 sequence (whole entry): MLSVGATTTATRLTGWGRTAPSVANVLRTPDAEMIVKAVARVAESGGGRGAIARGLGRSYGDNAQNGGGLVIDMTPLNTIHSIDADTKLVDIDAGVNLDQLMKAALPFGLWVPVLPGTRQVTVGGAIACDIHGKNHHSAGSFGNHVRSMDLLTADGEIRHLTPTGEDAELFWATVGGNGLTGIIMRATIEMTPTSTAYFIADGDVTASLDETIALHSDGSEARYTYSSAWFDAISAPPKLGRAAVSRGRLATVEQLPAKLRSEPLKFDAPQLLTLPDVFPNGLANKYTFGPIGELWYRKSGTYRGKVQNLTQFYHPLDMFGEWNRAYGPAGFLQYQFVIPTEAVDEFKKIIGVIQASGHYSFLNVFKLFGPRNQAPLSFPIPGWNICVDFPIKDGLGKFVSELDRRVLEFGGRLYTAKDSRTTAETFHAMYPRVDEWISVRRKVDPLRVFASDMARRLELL
# [3] = Tmax in ICR mouse at 25 micromol/kg, po measured after 24 hrs by LC-MS/MS analysis; assay type: ADME, organism-based; settings: in vivo, dose 25 µmol/kg
# [4] = Cmax in ICR mouse at 25 micromol/kg, po measured after 24 hrs by LC-MS/MS analysis; assay type: ADME, organism-based; settings: in vivo, dose 25 µmol/kg
# [5] = AUC (0 to 24 hrs) in ICR mouse at 25 micromol/kg, po by LC-MS/MS analysis; assay type: ADME, organism-based; settings: in vivo, dose 25 µmol/kg
# [6] = Elimination half life in ICR mouse at 25 micromol/kg, po measured after 24 hrs by LC-MS/MS analysis; assay type: ADME, organism-based; settings: in vivo, dose 25 µmol/kg, read-out: beta t1/2 (converted)
# [7] = MRT in ICR mouse at 25 micromol/kg, po measured after 24 hrs by LC-MS/MS analysis; assay type: ADME, organism-based; settings: in vivo, dose 25 µmol/kg
# [8] = Oral bioavailability in ICR mouse at 25 micromol/kg measured after 24 hrs by LC-MS/MS analysis; assay type: ADME, organism-based; settings: in vivo
# [9] = AUC (0 to 8 hrs) in ICR mouse at 5 micromol/kg, iv by LC-MS/MS analysis; assay type: ADME, organism-based; settings: in vivo, dose 5 µmol/kg
# [10] = Drug concentration in ICR mouse plasma at 5 micromol/kg, iv measured after 5 mins by LC-MS/MS analysis; assay type: ADME, organism-based; settings: dose 5 µmol/kg
# [11] = Elimination half life in ICR mouse at 5 micromol/kg, iv measured after 24 hrs by LC-MS/MS analysis; assay type: ADME, organism-based; settings: in vivo, dose 5 µmol/kg, read-out: beta t1/2 (converted)
# [12] = MRT in ICR mouse at 5 micromol/kg, iv measured after 24 hrs by LC-MS/MS analysis; assay type: ADME, organism-based; settings: in vivo, dose 5 µmol/kg
# [13] = Volume of distribution at steady state in ICR mouse at 5 micromol/kg, iv measured after 24 hrs by LC-MS/MS analysis; assay type: ADME, organism-based; settings: in vivo, dose 5 µmol/kg, read-out: Vdss
# [14] = Total plasma clearance in ICR mouse at 5 micromol/kg, iv measured after 24 hrs by LC-MS/MS analysis; assay type: ADME, organism-based; settings: dose 5 µmol/kg
# [15] = Protein binding in mouse plasma assessed as unbound fraction incubated for 24 hrs by equilibrium dialysis based LC/MS analysis; assay type: ADME, cell-free
# [16] = molecular target: T2, Decaprenylphosphoryl-beta-D-ribose oxidase (Mycobacterium tuberculosis (strain ATCC 25618 / H37Rv), UniProt P9WJF1); assay: Inhibition of recombinant Mycobacterium tuberculosis DprE1 expressed in Escherichia coli measured after 120 mins by Amplex Red/peroxidase coupled assay
# T2 sequence (P9WJF1 whole entry): T1 sequence (whole entry)
# [17] = Aqueous solubility of the compound in PBS buffer at pH 6.82 incubated for 4 hrs by HPLC analysis; assay type: physicochemical
# HepG2 = assay: Cytotoxicity against human HepG2 cells at 30 uM incubated for 48 hrs by CCK8 assay; assay type: toxicity, cell-based; settings: hepg2, 48 h
# [18] = system: Mycobacterium tuberculosis; assay: Antitubercular activity against Mycobacterium tuberculosis H37Rv infected in BALB/c mouse assessed as log reduction in colony formation in lung at 50 mg/kg, po administered for 6 weeks; assay type: functional
# [19] = Metabolic stability in NADPH-fortified human liver microsomes assessed as CYP450-mediated stability incubated for 120 mins by LC/MS analysis; assay type: ADME, Microsome; settings: 2 h
# [20] = Metabolic stability in NADPH-fortified mouse liver microsomes assessed as CYP450-mediated stability incubated for 120 mins by LC/MS analysis; assay type: ADME, Microsome; settings: 2 h
# [21] = Cytotoxicity against mouse hepatic stellate cells at 30 uM incubated for 48 hrs by CCK8 assay; assay type: toxicity, cell-based; settings: hepatic stellate cell
compound,measurement,setting,value
CN(CC#CCc1ccccc1)c1nc(=O)c2cc(C(F)(F)F)cc([N+](=O)[O-])c2s1,MIC,[1],0.053 µM
same,TDI,[2],Active
CN(CC#Cc1ccccc1)c1nc(=O)c2cc(C(F)(F)F)cc([N+](=O)[O-])c2s1,MIC,[1],0.007 µM
same,Tmax,[3],0.9 h
same,Cmax,[4],1.29 µM
same,AUC(0-t),[5]; ICR,5.16 µM·h
same,half-life,[6],2.95 h
same,MRT,[7],4.35 h
same,bioavailability,"[8]; ICR, 25 µmol/kg",4.49%
same,AUC(0-t),[9]; ICR,23.2 µM·h
same,concentration at 5 min,[10],13.5 µM
same,half-life,[11],1.77 h
same,MRT,[12],2.72 h
same,Vd,[13],0.25 L/kg
same,clearance,[14],1.5 mL/min/kg
same,Fu,[15],0.25%
same,IC50,[16],23 nM
same,solubility at 4 h,[17],0.8 µg/mL
same,Activity,HepG2,Non-Toxic
same,Activity,[18],<1 log10CFU
same,TDI,[2],Active
same,Stability,[19],Stable
same,Stability,[20],Stable
same,Activity,[21],Non-Toxic
CN(C)Cc1ccc(C#CCN(C)c2nc(=O)c3cc(C(F)(F)F)cc([N+](=O)[O-])c3s2)cc1,MIC,[1],0.47 µM
CN1CCC(O)(C#CCN(C)c2nc(=O)c3cc(C(F)(F)F)cc([N+](=O)[O-])c3s2)CC1,MIC,[1],16.9 µM
CN(CC#Cc1ccc2c(c1)OCCO2)c1nc(=O)c2cc(C(F)(F)F)cc([N+](=O)[O-])c2s1,MIC,[1],0.092 µM
CN(CC#CC(C)(C)C)c1nc(=O)c2cc(C(F)(F)F)cc([N+](=O)[O-])c2s1,MIC,[1],0.023 µM
CN(C/C=C/C1CCCCC1)c1nc(=O)c2cc(C(F)(F)F)cc([N+](=O)[O-])c2s1,MIC,[1],0.002 µM
CN(CC#CCN1CCS(=O)(=O)CC1)c1nc(=O)c2cc(C(F)(F)F)cc([N+](=O)[O-])c2s1,MIC,[1],0.867 µM
CN(CC#Cc1cncs1)c1nc(=O)c2cc(C(F)(F)F)cc([N+](=O)[O-])c2s1,MIC,[1],0.129 µM
CN(CC#Cc1cscn1)c1nc(=O)c2cc(C(F)(F)F)cc([N+](=O)[O-])c2s1,MIC,[1],0.028 µM
same,Tmax,[3],1 h
same,Cmax,[4],2.67 µM
same,AUC,[5]; po,18.99661 µM·h
same,half-life,[6],4.77 h
same,MRT,[7],7.17 h
same,F,"[8]; po, 24 h, at 25 µmol/kg",37.13%
same,AUC,[9]; iv,4.66345 µM·h
same,concentration at 5 min,[10],10.3 µM
same,half-life,[11],0.84 h
same,MRT,[12],1.05 h
same,Vd,[13],0.59 L/kg
same,clearance,[14],8.5 mL/min/kg
same,Fu,[15],0.65%
same,solubility at 4 h,[17],12.8 µg/mL
same,Activity,HepG2,Non-Toxic
same,Activity,[18],~2 log10CFU
same,Stability,[19],Stable
same,Stability,[20],Stable
same,Activity,[21],Non-Toxic
CN(CC#Cc1ccsc1)c1nc(=O)c2cc(C(F)(F)F)cc([N+](=O)[O-])c2s1,MIC,[1],0.014 µM
same,Stability,[19],Stable
same,Stability,[20],Stable
CN1CCN(CC#CCN(C)c2nc(=O)c3cc(C(F)(F)F)cc([N+](=O)[O-])c3s2)CC1,MIC,[1],1.92 µM
CN(Cc1nnc(-c2ccccc2)o1)c1nc(=O)c2cc(S(C)(=O)=O)cc([N+](=O)[O-])c2s1,MIC,[1],0.03 µM
CN(CC#CCN1CCCC1)c1nc(=O)c2cc(C(F)(F)F)cc([N+](=O)[O-])c2s1,MIC,[1],0.378 µM
CN(CC#Cc1cccc(C#N)c1)c1nc(=O)c2cc(C(F)(F)F)cc([N+](=O)[O-])c2s1,MIC,[1],0.029 µM
CN(C/C=C\C1CCCC1)c1nc(=O)c2cc(C(F)(F)F)cc([N+](=O)[O-])c2s1,MIC,[1],0.01 µM
CN(CC#CCN1CC2(COC2)C1)c1nc(=O)c2cc(C(F)(F)F)cc([N+](=O)[O-])c2s1,MIC,[1],0.423 µM
CN(C/C=C/c1ccccc1)c1nc(=O)c2cc(C(F)(F)F)cc([N+](=O)[O-])c2s1,MIC,[1],0.024 µM
same,TDI,[2],Active
COc1cccc(C#CCN(C)c2nc(=O)c3cc(C(F)(F)F)cc([N+](=O)[O-])c3s2)c1,MIC,[1],0.093 µM
CN(CC#Cc1ccc(F)cc1)c1nc(=O)c2cc(C(F)(F)F)cc([N+](=O)[O-])c2s1,MIC,[1],0.013 µM
CN(CC#CCN1CCSCC1)c1nc(=O)c2cc(C(F)(F)F)cc([N+](=O)[O-])c2s1,MIC,[1],0.028 µM
CN(C/C=C\C1CC1)c1nc(=O)c2cc(C(F)(F)F)cc([N+](=O)[O-])c2s1,MIC,[1],0.042 µM
